What all share (design): species or system Hepacivirus hominis
Test [1] has as its target T1, NS3 (Hepatitis C virus, UniProt A3EZJ3). Kind of test: Inhibitory concentration against hepatitis C virus (HCV) NS3 protease; Not active.
In test [2] the target is T1, NS3. Kind of test: Inhibitory concentration against hepatitis C virus (HCV) NS3 protease.
In test [3] the target is T1, NS3. As to the kind of experiment: Inhibitory concentration against hepatitis C virus (HCV) NS3 protease; Not active at >> 100 uM.

“And” between values parts separate entries of the source, which are not always exact repeats. Equal values may be shown once.

T1 sequence (A3EZJ3 whole entry): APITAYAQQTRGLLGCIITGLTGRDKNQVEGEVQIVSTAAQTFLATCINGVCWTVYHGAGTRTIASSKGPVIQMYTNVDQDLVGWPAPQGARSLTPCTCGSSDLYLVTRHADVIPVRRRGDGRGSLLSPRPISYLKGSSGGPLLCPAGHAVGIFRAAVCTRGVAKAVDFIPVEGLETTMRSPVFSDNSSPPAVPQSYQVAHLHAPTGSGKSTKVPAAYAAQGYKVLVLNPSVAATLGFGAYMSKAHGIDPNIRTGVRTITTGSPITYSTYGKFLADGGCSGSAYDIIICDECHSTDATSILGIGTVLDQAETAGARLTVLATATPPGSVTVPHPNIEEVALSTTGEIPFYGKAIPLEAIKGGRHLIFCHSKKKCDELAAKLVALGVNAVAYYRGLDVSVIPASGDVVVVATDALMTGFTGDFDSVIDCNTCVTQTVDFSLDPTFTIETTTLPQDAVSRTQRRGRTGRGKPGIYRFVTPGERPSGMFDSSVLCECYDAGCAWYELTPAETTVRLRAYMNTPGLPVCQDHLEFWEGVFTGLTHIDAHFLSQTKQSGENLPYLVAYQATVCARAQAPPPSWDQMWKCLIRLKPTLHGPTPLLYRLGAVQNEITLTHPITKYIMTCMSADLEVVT

As a reminder, the IC50 is the concentration at which inhibition is half-maximal. High values mean weaker potency, low ones greater potency. Turning to `C=CC1CC1(NC(=O)C1C[C@@H](Oc2ccnc3ccccc23)CN1C(=O)[C@@H](NC(=O)OC(C)(C)C)C(C)(C)C)C(=O)NCCc1ccc(C(=O)O)cc1` (stereo not given in full), the IC50 entry in test [1] is reported as “Not Active”.

Regarding `C=CC1C[C@@]1(NC(=O)C1C[C@@H](Oc2ccnc3ccccc23)CN1C(=O)[C@@H](NC(=O)OC(C)(C)C)C(C)(C)C)C(=O)O` (stereo not given in full), the concentration for half-maximal inhibition (IC50) entry in test [1] was “Not Active”.

In test [2], `COc1ccc2c(O[C@@H]3C[C@@H](C(=O)NC(CC(F)F)C(=O)NCCc4c(F)cc(C(=O)O)cc4F)N(C(=O)[C@@H](NC(=O)OC(C)(C)C)C(C)(C)C)C3)cc(-c3ccccc3)nc2c1` (stereo not given in full) gave an IC50 of 54 nM.

As to `COc1ccc2c(O[C@@H]3C[C@@H](C(=O)NC(CC(F)F)C(=O)NCCc4ccc(C(=O)O)cc4)N(C(=O)C(C)(C)C)C3)cc(-c3ccccc3)nc2c1` (stereo not given in full), the IC50 result in test [3] is given as “Not Active”.

For the compound `COc1ccc2c(O[C@@H]3C[C@@H](C(=O)NC(CC(F)F)C(=O)NCCc4ccc(C(=O)O)cc4)N(C(=O)[C@@H](O)C(C)C)C3)cc(-c3ccccc3)nc2c1` (stereo not given in full), in test [2], the half-maximal inhibitory concentration (IC50) was found to be 11000 nM.

Compound `COc1ccc2c(O[C@@H]3C[C@@H](C(=O)NC(CC(F)F)C(=O)NCCc4c(F)cc(C(=O)O)cc4F)N(C(C)=O)C3)cc(-c3ccccc3)nc2c1` (stereo not given in full) registered an IC50 in test [2] of 38000 nM.

As for `C=CC1C[C@]1(NC(=O)C1C[C@@H](Oc2ccnc3ccccc23)CN1C(=O)[C@@H](NC(=O)OC(C)(C)C)C(C)(C)C)C(=O)O` (stereo not given in full), the IC50 in test [2] was 330 nM and < 500 nM.

With `COc1ccc2c(O[C@@H]3C[C@@H](C(=O)NC(CC(F)F)C(=O)NCCc4ccc(C(=O)O)cc4)N(C(=O)[C@@H](NC(=O)OCC(C)C)C(C)C)C3)cc(-c3ccccc3)nc2c1` (stereo not given in full), the IC50 in test [2] amounted to 400 nM. That is a sub-micromolar value.

Compound `C=CC1C[C@]1(NC(=O)C1C[C@@H](Oc2cc(-c3ccccc3)nc3cc(OC)ccc23)CN1C(=O)[C@@H](NC(=O)OC(C)(C)C)C(C)(C)C)C(=O)O` (stereo not given in full) displayed an IC50 in test [2] of 25 nM.

For `COc1ccc2c(O[C@@H]3CC(C(=O)NC(CC(F)F)C(=O)O)N(C(=O)[C@@H](NC(=O)OC(C)(C)C)C(C)(C)C)C3)cc(-c3ccccc3)nc2c1` (stereo not given in full), the IC50 in test [2] was determined as 180 nM.

Source of the values: ChEMBL document CHEMBL1136161, “Novel, potent phenethylamide inhibitors of the hepatitis C virus (HCV) NS3 protease: probing the role of P2 aryloxyprolines with hybrid structures” (Bioorg Med Chem Lett, 2003).
